Source: ChEMBL document CHEMBL4507310, “Data for DCP probe A-1211212” (2021)

Tests used:
[1] = biological target: T1, Alpha-2B adrenergic receptor (Homo sapiens) (UniProt P18089); details: Compound concentration 10.0 uM
T1 sequence (whole entry): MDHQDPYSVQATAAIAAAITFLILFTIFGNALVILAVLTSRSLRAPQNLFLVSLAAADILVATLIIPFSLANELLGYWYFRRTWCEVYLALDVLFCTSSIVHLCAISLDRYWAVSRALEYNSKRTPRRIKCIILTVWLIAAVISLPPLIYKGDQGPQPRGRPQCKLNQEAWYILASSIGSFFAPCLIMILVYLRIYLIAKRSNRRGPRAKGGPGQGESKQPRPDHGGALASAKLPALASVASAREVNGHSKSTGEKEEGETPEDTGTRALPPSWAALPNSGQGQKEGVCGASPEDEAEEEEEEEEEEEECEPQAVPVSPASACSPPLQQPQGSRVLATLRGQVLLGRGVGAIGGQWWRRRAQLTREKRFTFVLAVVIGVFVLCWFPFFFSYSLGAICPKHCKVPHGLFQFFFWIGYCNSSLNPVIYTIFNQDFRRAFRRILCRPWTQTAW

[2] = biological target: Calcium/calmodulin-dependent protein kinase type 1B (Homo sapiens) (UniProt Q6P2M8); details: Compound concentration 1000.0 nM
[3] = system: Phosphatidylinositol 4,5-bisphosphate 3-kinase catalytic subunit alpha isoform (Homo sapiens), P42336 [I800L]; details: Compound concentration 1000.0 nM
[4] = biological target: Serine/threonine-protein kinase pim-1 (Homo sapiens) (UniProt P11309); details: Compound concentration 1000.0 nM
[5] = biological target: Cytoplasmic tyrosine-protein kinase BMX (Homo sapiens) (UniProt P51813); details: Compound concentration 1000.0 nM
[6] = biological target: MAO-A (amine oxidase [flavin-containing] A) (Rattus norvegicus, UniProt P21396); assay: MAO-A Eurofins-Cerep binding assay; design: incubation time 60 min, incubation temperature 37°C, ligand concentration 10 nM; details: rat cerebral cortex, probe [3H]Ro 41-1049 (10 nM), compound concentration 10 uM, read-out: % Inhibition of Control Specific Binding (Mean n=2)
[7] = system: Receptor-type tyrosine-protein kinase FLT3 (Homo sapiens), P36888 [UNDEFINED MUTATION]; details: Compound concentration 1000.0 nM
[8] = biological target: T2, Muscarinic acetylcholine receptor M2 (Homo sapiens) (UniProt P08172); details: Compound concentration 10.0 uM
T2 sequence (whole entry): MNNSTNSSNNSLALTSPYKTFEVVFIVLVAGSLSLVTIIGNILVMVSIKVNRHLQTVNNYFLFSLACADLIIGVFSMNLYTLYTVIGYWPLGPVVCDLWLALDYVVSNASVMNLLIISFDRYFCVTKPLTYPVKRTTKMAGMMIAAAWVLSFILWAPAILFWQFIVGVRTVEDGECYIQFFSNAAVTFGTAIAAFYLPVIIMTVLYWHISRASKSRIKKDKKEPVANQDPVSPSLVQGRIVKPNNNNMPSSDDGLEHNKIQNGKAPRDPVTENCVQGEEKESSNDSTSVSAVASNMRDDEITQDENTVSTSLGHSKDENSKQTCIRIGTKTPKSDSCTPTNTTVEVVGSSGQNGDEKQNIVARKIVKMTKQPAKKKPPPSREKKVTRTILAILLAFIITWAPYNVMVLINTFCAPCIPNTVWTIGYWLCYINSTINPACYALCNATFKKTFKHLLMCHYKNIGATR

[9] = biological target: GABA-A receptor; alpha-1/beta-2/gamma-2 (Homo sapiens) (UniProt P14867+P47870+P18507); assay: GABAA1 (h) (alpha1,beta2,gamma2) Eurofins-Cerep binding assay; type: protein-complex assay; design: ligand concentration 15 nM; details: filed as agonist, Compound concentration 10.0 uM
[10] = biological target: TGF-beta receptor type-2 (Homo sapiens) (UniProt P37173); details: Compound concentration 1000.0 nM
[11] = biological target: Endothelin receptor type B (Homo sapiens) (UniProt P24530); assay: ETB (h) Eurofins-Cerep binding assay; design: ligand concentration 0.03 nM; details: filed as agonist, Compound concentration 10.0 uM
[12] = system: Mast/stem cell growth factor receptor Kit (Homo sapiens), P10721 [L576P]; details: Compound concentration 1000.0 nM
[13] = biological target: Endothelin-1 receptor (Homo sapiens) (UniProt P25101); assay: ETA (h) Eurofins-Cerep binding assay; design: ligand concentration 0.03 nM; details: filed as agonist, Compound concentration 10.0 uM
[14] = biological target: Glutamate NMDA receptor (Rattus norvegicus) (UniProt P35439+Q00959+Q00960+Q00961+Q62645+Q8VHN2+Q9R1M7); assay: NMDA Eurofins-Cerep binding assay; type: protein-complex assay; design: ligand concentration 5 nM; details: filed as antagonist, Compound concentration 10.0 uM
[15] = biological target: Serine/threonine-protein kinase SIK3 (Homo sapiens) (UniProt Q9Y2K2); details: Compound concentration 1000.0 nM
[16] = biological target: Tyrosine-protein kinase FRK (Homo sapiens) (UniProt P42685); details: Compound concentration 1000.0 nM
[17] = biological target: Inhibitor of nuclear factor kappa-B kinase subunit epsilon (Homo sapiens) (UniProt Q14164); details: Compound concentration 1000.0 nM
[18] = biological target: Sodium-dependent noradrenaline transporter (Homo sapiens) (UniProt P23975); assay: norepinephrine transporter (h) Eurofins-Cerep binding assay; design: ligand concentration 1 nM; details: filed as antagonist, Compound concentration 10.0 uM
[19] = biological target: Mu-type opioid receptor (Homo sapiens) (UniProt P35372); details: Compound concentration 10.0 uM
[20] = biological target: Dual specificity tyrosine-phosphorylation-regulated kinase 2 (Homo sapiens) (UniProt Q92630); details: Compound concentration 1000.0 nM
[21] = biological target: Citron Rho-interacting kinase (Homo sapiens) (UniProt O14578); details: Compound concentration 1000.0 nM
[22] = biological target: Serine/threonine-protein kinase 10 (Homo sapiens) (UniProt O94804); details: Compound concentration 1000.0 nM
[23] = biological target: Phosphorylase b kinase regulatory subunit alpha, liver isoform (Homo sapiens) (UniProt P46019); details: Compound concentration 1000.0 nM
[24] = biological target: Mitogen-activated protein kinase kinase kinase 14 (Homo sapiens) (UniProt Q99558); details: Compound concentration 1000.0 nM
[25] = biological target: MAP/microtubule affinity-regulating kinase 3 (Homo sapiens) (UniProt P27448); details: Compound concentration 1000.0 nM
[26] = biological target: Macrophage-stimulating protein receptor (Homo sapiens) (UniProt Q04912); details: Compound concentration 1000.0 nM
[27] = biological target: Prostaglandin G/H synthase 2 (Homo sapiens) (UniProt P35354); assay: COX2(h) Eurofins-Cerep enzyme and uptake assay; details: Compound concentration 10.0 uM
AMO1 = assay: CellTiter-Glo Luminescent Cell Viability Assay ( MCL-1 dependent cell line AMO-1); type: functional, cell-based; details: Homo sapiens
[28] = biological target: Beta-2 adrenergic receptor (Homo sapiens) (UniProt P07550); details: Compound concentration 10.0 uM
[29] = biological target: Induced myeloid leukemia cell differentiation protein Mcl-1 (Homo sapiens, UniProt Q07820); assay: Time-resolved fluorescence energy transfer (TR-FRET) with MCL1

Chain of Cytoplasmic tyrosine-protein kinase BMX (Homo sapiens) (P51813 whole entry): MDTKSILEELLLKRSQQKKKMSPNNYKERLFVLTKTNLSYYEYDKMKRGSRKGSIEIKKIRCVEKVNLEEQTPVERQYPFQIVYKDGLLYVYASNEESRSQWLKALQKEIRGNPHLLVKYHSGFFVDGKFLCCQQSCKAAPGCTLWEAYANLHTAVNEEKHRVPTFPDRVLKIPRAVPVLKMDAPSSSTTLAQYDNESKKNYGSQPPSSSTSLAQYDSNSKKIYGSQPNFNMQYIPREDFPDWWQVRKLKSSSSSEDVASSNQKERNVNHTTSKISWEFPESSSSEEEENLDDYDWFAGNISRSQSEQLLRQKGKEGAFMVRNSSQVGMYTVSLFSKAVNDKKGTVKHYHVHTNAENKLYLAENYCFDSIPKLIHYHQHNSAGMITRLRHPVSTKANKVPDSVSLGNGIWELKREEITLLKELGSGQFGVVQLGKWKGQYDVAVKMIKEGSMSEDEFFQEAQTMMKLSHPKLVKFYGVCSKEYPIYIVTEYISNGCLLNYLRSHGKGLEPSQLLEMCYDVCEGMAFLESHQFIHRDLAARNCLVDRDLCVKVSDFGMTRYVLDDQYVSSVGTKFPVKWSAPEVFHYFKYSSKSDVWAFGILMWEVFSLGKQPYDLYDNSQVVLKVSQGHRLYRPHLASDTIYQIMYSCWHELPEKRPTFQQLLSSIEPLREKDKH
Chain of Citron Rho-interacting kinase (Homo sapiens) (O14578 whole entry): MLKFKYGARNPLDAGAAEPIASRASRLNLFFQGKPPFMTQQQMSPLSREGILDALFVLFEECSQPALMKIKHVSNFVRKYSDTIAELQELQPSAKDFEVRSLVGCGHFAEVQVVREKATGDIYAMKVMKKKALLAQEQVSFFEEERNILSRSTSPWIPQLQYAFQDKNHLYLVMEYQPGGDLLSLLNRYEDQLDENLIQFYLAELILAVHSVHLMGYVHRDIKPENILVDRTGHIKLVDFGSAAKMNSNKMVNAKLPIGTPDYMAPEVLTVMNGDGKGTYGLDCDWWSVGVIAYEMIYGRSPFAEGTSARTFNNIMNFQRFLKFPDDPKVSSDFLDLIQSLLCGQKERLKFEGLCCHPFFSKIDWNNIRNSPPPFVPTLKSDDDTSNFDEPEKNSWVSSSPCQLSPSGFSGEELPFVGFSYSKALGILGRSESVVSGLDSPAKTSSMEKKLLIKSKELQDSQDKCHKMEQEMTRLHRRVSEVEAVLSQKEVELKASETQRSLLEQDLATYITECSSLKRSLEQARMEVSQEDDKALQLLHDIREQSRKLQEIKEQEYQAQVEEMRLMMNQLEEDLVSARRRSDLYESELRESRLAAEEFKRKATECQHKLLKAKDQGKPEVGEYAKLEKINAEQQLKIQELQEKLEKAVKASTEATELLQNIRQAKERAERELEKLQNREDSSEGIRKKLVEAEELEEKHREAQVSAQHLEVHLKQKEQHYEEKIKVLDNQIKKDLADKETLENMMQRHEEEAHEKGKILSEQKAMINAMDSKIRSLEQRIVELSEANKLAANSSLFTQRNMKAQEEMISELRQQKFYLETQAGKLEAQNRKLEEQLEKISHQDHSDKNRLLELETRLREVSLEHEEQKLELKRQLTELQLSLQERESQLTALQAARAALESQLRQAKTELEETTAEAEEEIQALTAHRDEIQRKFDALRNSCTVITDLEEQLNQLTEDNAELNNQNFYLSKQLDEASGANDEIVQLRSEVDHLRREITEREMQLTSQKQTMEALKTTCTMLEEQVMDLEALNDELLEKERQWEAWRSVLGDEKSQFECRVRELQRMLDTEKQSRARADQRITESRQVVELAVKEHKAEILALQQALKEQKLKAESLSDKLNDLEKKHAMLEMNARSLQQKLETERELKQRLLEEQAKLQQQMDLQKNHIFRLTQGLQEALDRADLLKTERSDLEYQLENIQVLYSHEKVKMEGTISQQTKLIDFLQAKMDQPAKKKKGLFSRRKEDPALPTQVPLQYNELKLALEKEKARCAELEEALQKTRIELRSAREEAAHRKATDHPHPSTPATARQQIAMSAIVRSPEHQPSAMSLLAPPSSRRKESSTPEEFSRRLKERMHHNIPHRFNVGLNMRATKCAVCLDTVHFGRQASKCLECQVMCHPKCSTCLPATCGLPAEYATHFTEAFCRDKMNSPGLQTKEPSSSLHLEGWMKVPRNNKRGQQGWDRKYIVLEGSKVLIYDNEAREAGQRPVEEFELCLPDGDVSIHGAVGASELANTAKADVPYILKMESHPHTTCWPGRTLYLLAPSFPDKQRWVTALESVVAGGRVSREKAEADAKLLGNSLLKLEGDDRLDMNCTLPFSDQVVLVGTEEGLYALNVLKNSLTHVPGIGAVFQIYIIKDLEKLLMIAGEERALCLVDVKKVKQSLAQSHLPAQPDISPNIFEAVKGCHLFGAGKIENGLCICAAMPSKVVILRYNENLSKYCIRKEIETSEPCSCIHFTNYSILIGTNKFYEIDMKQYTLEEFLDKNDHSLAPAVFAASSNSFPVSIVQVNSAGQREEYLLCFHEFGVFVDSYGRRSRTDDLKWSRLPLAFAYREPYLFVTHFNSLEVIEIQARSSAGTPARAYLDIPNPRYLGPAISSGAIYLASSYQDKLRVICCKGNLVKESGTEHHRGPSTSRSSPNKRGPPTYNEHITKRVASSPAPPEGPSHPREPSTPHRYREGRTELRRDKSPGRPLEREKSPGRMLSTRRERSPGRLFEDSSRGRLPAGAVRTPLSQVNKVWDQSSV
Chain of MAP/microtubule affinity-regulating kinase 3 (Homo sapiens) (P27448 whole entry, looked up): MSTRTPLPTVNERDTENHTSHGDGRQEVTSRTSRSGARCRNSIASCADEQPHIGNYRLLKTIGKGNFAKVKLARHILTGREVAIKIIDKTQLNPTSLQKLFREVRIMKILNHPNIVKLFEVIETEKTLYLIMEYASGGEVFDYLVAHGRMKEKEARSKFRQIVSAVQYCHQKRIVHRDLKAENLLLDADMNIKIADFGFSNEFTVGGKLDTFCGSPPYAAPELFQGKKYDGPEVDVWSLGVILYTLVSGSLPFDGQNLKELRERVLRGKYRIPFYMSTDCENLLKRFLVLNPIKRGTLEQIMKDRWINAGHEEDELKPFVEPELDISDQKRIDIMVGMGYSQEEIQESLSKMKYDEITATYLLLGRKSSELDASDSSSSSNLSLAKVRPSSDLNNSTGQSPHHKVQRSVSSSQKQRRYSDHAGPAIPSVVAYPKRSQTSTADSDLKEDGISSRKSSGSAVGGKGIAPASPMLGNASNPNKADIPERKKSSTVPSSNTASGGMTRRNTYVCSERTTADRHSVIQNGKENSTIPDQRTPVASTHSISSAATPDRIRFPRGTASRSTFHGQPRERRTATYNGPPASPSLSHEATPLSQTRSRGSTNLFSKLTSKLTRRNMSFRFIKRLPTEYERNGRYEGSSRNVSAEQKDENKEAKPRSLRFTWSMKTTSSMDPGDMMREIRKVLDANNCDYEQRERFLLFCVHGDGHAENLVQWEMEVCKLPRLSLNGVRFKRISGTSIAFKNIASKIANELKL
Chain of Mu-type opioid receptor (Homo sapiens) (P35372 whole entry): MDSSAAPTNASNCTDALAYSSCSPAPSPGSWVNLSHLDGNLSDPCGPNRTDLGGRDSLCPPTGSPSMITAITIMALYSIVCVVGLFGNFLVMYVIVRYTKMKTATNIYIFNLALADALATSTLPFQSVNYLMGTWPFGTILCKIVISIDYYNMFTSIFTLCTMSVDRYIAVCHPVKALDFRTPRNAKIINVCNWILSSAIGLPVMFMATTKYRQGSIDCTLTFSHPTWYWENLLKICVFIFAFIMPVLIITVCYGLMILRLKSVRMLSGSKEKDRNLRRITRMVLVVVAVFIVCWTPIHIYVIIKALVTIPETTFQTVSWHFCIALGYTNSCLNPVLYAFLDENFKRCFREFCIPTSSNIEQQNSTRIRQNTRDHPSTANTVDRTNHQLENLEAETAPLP
Chain of Receptor-type tyrosine-protein kinase FLT3 (Homo sapiens), P36888 [UNDEFINED MUTATION] (P36888 whole entry, looked up, change not shown): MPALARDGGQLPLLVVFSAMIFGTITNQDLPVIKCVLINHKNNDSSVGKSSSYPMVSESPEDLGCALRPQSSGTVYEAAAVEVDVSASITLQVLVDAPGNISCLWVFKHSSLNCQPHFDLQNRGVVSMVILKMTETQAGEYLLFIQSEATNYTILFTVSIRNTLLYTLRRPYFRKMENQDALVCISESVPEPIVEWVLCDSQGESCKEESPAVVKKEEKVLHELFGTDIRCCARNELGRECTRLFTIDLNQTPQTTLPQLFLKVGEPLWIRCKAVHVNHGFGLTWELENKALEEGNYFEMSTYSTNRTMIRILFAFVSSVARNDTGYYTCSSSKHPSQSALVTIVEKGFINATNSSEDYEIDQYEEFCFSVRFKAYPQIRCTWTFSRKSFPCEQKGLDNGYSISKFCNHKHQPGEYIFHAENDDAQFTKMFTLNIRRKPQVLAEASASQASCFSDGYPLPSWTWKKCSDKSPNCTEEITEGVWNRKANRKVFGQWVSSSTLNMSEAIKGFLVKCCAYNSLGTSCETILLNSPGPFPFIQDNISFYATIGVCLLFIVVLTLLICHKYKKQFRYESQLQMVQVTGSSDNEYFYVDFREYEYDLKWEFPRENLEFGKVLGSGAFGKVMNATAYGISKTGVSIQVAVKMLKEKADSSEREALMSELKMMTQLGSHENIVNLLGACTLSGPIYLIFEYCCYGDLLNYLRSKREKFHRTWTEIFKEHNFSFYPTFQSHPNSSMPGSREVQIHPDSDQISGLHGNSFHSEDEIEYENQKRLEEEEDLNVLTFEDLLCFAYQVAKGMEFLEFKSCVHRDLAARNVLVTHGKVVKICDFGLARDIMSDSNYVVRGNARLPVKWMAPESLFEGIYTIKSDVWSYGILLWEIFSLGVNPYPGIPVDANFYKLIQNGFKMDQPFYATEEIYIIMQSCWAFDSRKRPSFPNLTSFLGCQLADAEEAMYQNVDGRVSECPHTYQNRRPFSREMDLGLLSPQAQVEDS

Row | Compound | inhibition [1] | residual activity [2] | residual activity [3] | residual activity [4] | residual activity [5] | inhibition at 60 min, 10 µM [6] | residual activity [7] | inhibition [8] | % Inhibition of Control Specific Binding (Mean n=2) [9] | residual activity [10] | % Inhibition of Control Specific Binding (Mean n=2) [11] | residual activity [12] | % Inhibition of Control Specific Binding (Mean n=2) [13] | % Inhibition of Control Specific Binding (Mean n=2) [14] | residual activity [15] | residual activity [16] | residual activity [17] | % Inhibition of Control Specific Binding (Mean n=2) [18] | inhibition [19] | residual activity [20] | other results
1 | O=C(NS(=O)(=O)c1ccc(NCC2CCOCC2)c([N+](=O)[O-])c1)c1ccc(N2CCN(Cc3ccc(C(F)(F)F)cc3-c3ccc(Cl)cc3)CC2)cc1Oc1cnc2[nH]ccc2c1 [A-1210227] | 15.6% | 0% | 100% | 92% | 100% | 8.7% | 88% | 1.6% | -0.7% | 76% | -11.8% | 100% | -7.6% | -7.6% | 76% | 100% | 65% | -14.5% | 10.7% | 100% | residual activity [21]: 91%; residual activity [22]: 100%; residual activity [23]: 83%; residual activity [24]: 65%; residual activity [25]: 100%; residual activity [26]: 96%; % Inhibition of Control Values (Mean n=2) [27]: 78.1%
2 | CO[C@H]1CC[C@H](CNc2ccc(S(=O)(=O)NC(=O)c3ccc(N4CCN(CC5=C(c6ccc(Cl)cc6)CC(C)(C)CC5)CC4)cc3Oc3cnc4[nH]ccc4c3)cc2[N+](=O)[O-])CC1 [A-1211212] | 33% | 81% | 98% | 72% | 95% | -5.9% | 100% | -2.68% | -12.2% | 74% | -6.7% | 100% | 2.5% | -3.3% | 89% | 100% | 100% | 16.2% | 10.2% | 100% | EC50 (AMO1): > 1 µM (not active); inhibition [28]: 21.3%; residual activity [21]: 74%; residual activity [22]: 74%; residual activity [23]: 74%; residual activity [24]: 100%; IC50 [29]: 2.05 µM (not active); residual activity [25]: 96%; residual activity [26]: 92%; % Inhibition of Control Values (Mean n=2) [27]: 14.2%
